{"source": "ChEMBL document CHEMBL1135149", "about": "“Syntheses of depsipeptide analogues of the insect neuropeptide proctolin” (2002)", "note": "Non-standard residues stand in square brackets, D forms with d. Residues, ends and D or L forms follow the SMILES beside them. *: point of attachment. Hpla = O=C(O)[C@@H](O)Cc1ccc(O)cc1; Hica(2S) = CC(C)C[C@H](O)C(=O)O; X1 = C[C@@H](O)[C@H](O*)C(=O)O", "data": [{"test_system": "Locusta migratoria", "assay": "Myotropic effect was assessed in vitro, using an isometric muscle contraction bioassay employing isolated hindguts from the locust Locusta migratoria at 1 uM/L", "assay_type": "functional, Muscle tissue", "units": {"Isometric contraction": "%"}, "values": [{"compound": "CC(C)C[C@H](OC(=O)[C@H](Cc1ccc(O)cc1)NC(=O)[C@@H](N)CCCN=C(N)N)C(=O)N1CCC[C@H]1C(=O)O[C@H](C(=O)O)[C@@H](C)O.O=C(O)C(F)(F)F.O=C(O)C(F)(F)F.O=C(O)C(F)(F)F", "note": "(H-RY[Hica(2S)]P-X1)", "Isometric contraction": 27}, {"compound": "CC(C)C[C@H](NC(=O)[C@H](Cc1ccc(O)cc1)NC(=O)[C@@H](N)CCCN=C(N)N)C(=O)N1CCC[C@H]1C(=O)O[C@H](C(=O)O)[C@@H](C)O.O=C(O)C(F)(F)F.O=C(O)C(F)(F)F.O=C(O)C(F)(F)F", "note": "(H-RYLP-X1)", "Isometric contraction": 106}, {"compound": "CC(C)C[C@H](OC(=O)[C@H](Cc1ccc(O)cc1)NC(=O)[C@@H](N)CCCN=C(N)N)C(=O)N1CCC[C@H]1C(=O)N[C@H](C(=O)O)[C@@H](C)O.O=C(O)C(F)(F)F.O=C(O)C(F)(F)F.O=C(O)C(F)(F)F", "note": "(H-RY[Hica(2S)]PT-OH)", "Isometric contraction": 30}, {"compound": "CC(C)C[C@H](NC(=O)[C@H](Cc1ccc(O)cc1)OC(=O)[C@@H](N)CCCN=C(N)N)C(=O)N1CCC[C@H]1C(=O)N[C@H](C(=O)O)[C@@H](C)O.O=C(O)C(F)(F)F.O=C(O)C(F)(F)F.O=C(O)C(F)(F)F", "note": "(H-R[Hpla]LPT-OH)", "Isometric contraction": 66}, {"compound": "H-RYLPT-OH [PROCTOLIN]", "Isometric contraction": 100}]}]}
